Measured values published in article PMC4331664, “Allosteric regulation of the partitioning of glucose-1-phosphate between glycogen and trehalose biosynthesis in Mycobacterium tuberculosis” (Biochimica et Biophysica Acta. General Subjects, 2015).
Read-outs that look alike come from different tables or passages of the source.

How the values were obtained:
[1] = molecular target: T1, ADP-Glc PPase (ADP-glucose pyrophosphorylase) (Mycobacterium tuberculosis, UniProt P9WN43); settings: read-out: A0.5
T1 construct: gene glgC

[2] = molecular target: T1, ADP-Glc PPase (ADP-glucose pyrophosphorylase); experiment: biochemical
[3] = test system: Nc1ncnc2c1ncn2[C@@H]1O[C@H](COP(=O)(O)OP(=O)(O)O[C@H]2O[C@H](CO)[C@@H](O)[C@H](O)[C@H]2O)[C@@H](O)[C@H]1O; experiment: purified protein; settings: pH 8.0
[4] = molecular target: T2, Tre-6P Sase (trehalose-6-phosphate synthase) (Mycobacterium tuberculosis, UniProt P9WN11); settings: read-out: A0.5
T2 construct: gene otsA

[5] = molecular target: T1, ADP-Glc PPase (ADP-glucose pyrophosphorylase)

T1 sequence (P9WN43 whole entry): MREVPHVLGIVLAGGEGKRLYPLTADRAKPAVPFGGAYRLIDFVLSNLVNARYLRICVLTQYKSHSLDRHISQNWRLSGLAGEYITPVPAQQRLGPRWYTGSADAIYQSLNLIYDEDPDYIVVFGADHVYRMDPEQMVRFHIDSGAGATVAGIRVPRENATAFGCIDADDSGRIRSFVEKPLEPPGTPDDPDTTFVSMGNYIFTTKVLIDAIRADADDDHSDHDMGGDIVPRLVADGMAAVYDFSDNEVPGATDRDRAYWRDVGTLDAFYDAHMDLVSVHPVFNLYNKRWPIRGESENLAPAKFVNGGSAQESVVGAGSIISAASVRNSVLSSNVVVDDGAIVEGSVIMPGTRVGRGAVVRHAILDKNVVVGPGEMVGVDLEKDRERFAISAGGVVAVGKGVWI
T2 sequence (P9WN11 whole entry): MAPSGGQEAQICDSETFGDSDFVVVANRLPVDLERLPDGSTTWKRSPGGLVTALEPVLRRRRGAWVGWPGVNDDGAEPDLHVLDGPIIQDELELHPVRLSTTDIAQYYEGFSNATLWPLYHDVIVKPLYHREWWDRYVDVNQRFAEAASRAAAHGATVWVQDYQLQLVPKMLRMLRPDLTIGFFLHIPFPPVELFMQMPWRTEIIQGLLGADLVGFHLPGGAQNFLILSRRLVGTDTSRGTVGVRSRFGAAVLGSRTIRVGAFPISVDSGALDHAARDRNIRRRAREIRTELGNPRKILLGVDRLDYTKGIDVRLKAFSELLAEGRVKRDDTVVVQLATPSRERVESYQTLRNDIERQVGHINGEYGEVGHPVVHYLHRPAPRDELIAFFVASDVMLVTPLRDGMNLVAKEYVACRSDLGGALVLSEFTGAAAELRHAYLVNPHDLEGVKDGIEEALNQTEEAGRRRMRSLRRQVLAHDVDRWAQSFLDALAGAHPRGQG

Molecule: O=P(O)(O)OC[C@H]1OC(O)[C@H](O)[C@@H](O)[C@@H]1O (stereo partly drawn) [Glc-6P]
- EC50 [1]: 870 µM

Molecule: C=C(OP(=O)(O)O)C(=O)O [PEP]
- EC50 [2]: 90 µM

Molecule: GSase (glycogen synthase) (Mycobacterium tuberculosis H37Rv)
- K0.5 [3]: 3.95 ± 0.12 mM
- Vmax [3]: 0.21 µmol/min/mg

Molecule: O=P(O)(O)OC[C@H]1OC(O)(CO)[C@@H](O)[C@@H]1O (stereo partly drawn) [Fru-6P]
- EC50 [4]: 330 µM
- fold activation at 5 mM [5]: 1.3 fold
